Our source for the Activity, Papp A→B and CLH values is ChEMBL document CHEMBL6103649, “Optimization of Cyclophilin B-Targeted Tri-vector Inhibitors for Novel MASH Treatments” (J Med Chem, 2025).

The structures appear in SMILES notation. The source made the active and inactive calls. The rule behind the calls is not given here.

The subject of data set [1] is Hepatocyte. The data set can be described thus: Anti-MASH activity in fatty acid induced human iPSC derived Hepatocyte assessed as reduction in lipid droplet size in hepatocyte at 10 uM measured after 48 hrs. The data set is classed as functional, cell-based.
Data set [2] has as its system Hepatocyte. Description: Anti-MASH activity in fatty acid induced human iPSC derived Hepatocyte assessed as reduction in lipid level in hepatocyte at 10 uM measured after 48 hrs. In kind it is functional, cell-based.
Data set [3] in a line: Mutagenicity in Salmonella typhimurium TA1535 at 5 to 100 mM incubated for 96 hrs in absence of rat liver s9 microsomes by Ames test. In kind it is toxicity. The conditions noted are these: salmonella enterica subsp. enterica serovar typhimurium, 100000 µM, dose 5-100 mM. Background: The Ames test detects mutagens through reverse mutation in bacteria.
Data set [4] in a line: Mutagenicity in Salmonella typhimurium TA1537 at 5 to 100 mM incubated for 96 hrs in presence of rat liver s9 microsomes by Ames test. The data set is classed as toxicity, Microsome. The conditions noted are these: salmonella enterica subsp. enterica serovar typhimurium, 100000 µM, dose 5-100 mM.
The nature of data set [5]: Mutagenicity in Salmonella typhimurium TA1535 at 5 to 100 mM incubated for 96 hrs in presence of rat liver s9 microsomes by Ames test. In kind it is toxicity, Microsome. The conditions noted are these: salmonella enterica subsp. enterica serovar typhimurium, 100000 µM, dose 5-100 mM.
Data set [6] can be described thus: Mutagenicity in Salmonella typhimurium TA100 at 5 to 100 mM incubated for 96 hrs in presence of rat liver s9 microsomes by Ames test. The data set is classed as toxicity, Microsome. Conditions: salmonella enterica subsp. enterica serovar typhimurium, 100000 µM, dose 5-100 mM.
The nature of data set [7]: Mutagenicity in Salmonella typhimurium TA100 at 5 to 100 mM incubated for 96 hrs in absence of rat liver s9 microsomes by Ames test. In kind it is toxicity. Conditions: salmonella enterica subsp. enterica serovar typhimurium, 100000 µM, dose 5-100 mM.
A further data set can be described thus: in vitro. Conditions: human, Caco-2.
Data set [8] is described as follows: Mutagenicity in Salmonella typhimurium TA1537 at 5 to 100 mM incubated for 96 hrs in absence of rat liver s9 microsomes by Ames test. The conditions noted are these: salmonella enterica subsp. enterica serovar typhimurium, 100000 µM, dose 5-100 mM. The data set is classed as toxicity.
The nature of data set [9]: Mutagenicity in Salmonella typhimurium TA98 at 5 to 100 mM incubated for 96 hrs in presence of rat liver s9 microsomes by Ames test. The conditions noted are these: salmonella enterica subsp. enterica serovar typhimurium, 100000 µM, dose 5-100 mM. In kind it is toxicity, Microsome.
Data set [10] is described as follows: Mutagenicity in Salmonella typhimurium TA98 at 5 to 100 mM incubated for 96 hrs in absence of rat liver s9 microsomes by Ames test. The conditions noted are these: salmonella enterica subsp. enterica serovar typhimurium, 100000 µM, dose 5-100 mM. The data set is classed as toxicity.
The nature of data set [11]: Metabolic stability in human liver microsomes assessed as clearance. The data set is classed as ADME, Microsome. A general note: Liver microsomes are vesicles of endoplasmic reticulum, rich in cytochrome P450 enzymes.

Description for in vitro: Apparent permeability of the compound in human Caco-2 cells across apical to basolateral side

With `CC(C)c1cc(Oc2c(Cl)cc(-n3nc(C#N)c(=O)[nH]c3=O)cc2Cl)n[nH]c1=O`, the outcome with Hepatocyte [1] and with Hepatocyte [2] was Active.

One may read the Papp A→B as the apparent permeability from the apical to the basolateral side of a cell layer. In the case of `Cn1nnc(CN(Cc2ccc(N)c(Cl)c2)C(=O)NCC(=O)N2CCC[C@@H]2c2ccccc2Br)n1`, the Activity entry in [3], in [4], in [5], in data set [6], in data set [7] and in [8] was “Non-toxic” in each case. The Activity result in data set [9] and in data set [10] was “Non-toxic” in each case. For the same compound, the Papp A→B in “in vitro” is 6.6 ×10⁻⁶ cm/s.

For the compound `CSc1ccccc1[C@H]1CCCN1C(=O)CNC(=O)N(Cc1ccc(N)c(Cl)c1)Cc1nnn(C)n1`, the result in the data set with Hepatocyte [1] and in the data set with Hepatocyte [2] was Active. Also, the Activity result in [3], in data set [4], in data set [5], in [6], in data set [7] and in [8] was “Non-toxic” in each case. Further, the Activity result in data set [9] and in data set [10] was “Non-toxic” throughout. In addition, the apparent permeability from apical to basolateral (Papp A→B) in “in vitro” was found to be 5 ×10⁻⁶ cm/s.

For `CSc1ccccc1[C@H]1CCCN1C(=O)CNC(=O)N(Cc1cnc(N)nc1)Cc1ncc(C)s1`, the Activity result in [3], in [4], in data set [5], in data set [6], in data set [7] and in data set [8] was “Non-toxic” throughout. The Activity result in data set [9] and in data set [10] was “Non-toxic” in each case. In the data set “in vitro”, this compound came in with a Papp A→B of 0.8 ×10⁻⁶ cm/s. In data set [11], the CLH came out at 60 µL/min/mg.
